Assay results from patent US9656984B2, “PI3K/AKT/mTOR inhibitors and pharmaceutical uses thereof” (UNIVERSITE DE RENNES 1, priority 2013, dated 2017).

Assays:
[1] = In vivo toxicity, repeated intravenous injections in mice; conditions: 10 mg/kg
Procedure: Mice received repeated intravenous injections of compound 25 (10 mg/kg) or vehicle.

MDA-MB-231 cells = experiment: Boyden chamber cell migration, MDA-MB-231 stimulated with CD95L; type: cell-based, human; conditions: MDA-MB-231, 1 μM, CD95L 100 ng/ml, 24 hours, FIG. 17B
Procedure: TNBC (MDA-MB-231 and BT549) cell lines were pre-incubated for 1 hour in presence or absence of non-cytotoxic amount of compound 25 (1 μM) and then treated or untreated with CD95L (100 ng/ml) for 24 hours. Cell migration was analyzed using Boyden chamber assay. Migrating Giemsa-stained cells were lysed and absorbance was measured at a wavelength of 560 nm. Values represent the means±SEM of three independently performed experiments. *p<0.05 as calculated using two-tailed Mann-Whitney test.
After membrane hydration of Boyden chambers (Millipore, Molsheim, France) containing 8 μm pore membranes, 10^5 cells were added to the top chamber. The bottom chamber was filled with low serum (1%)-containing medium in the presence or absence of cl-CD95L (100 ng/ml). Breast cancer cells were incubated for 24 h. To quantify invasion, cells were fixed with methanol and stained with Giemsa. Stained cells were then removed from the top-side of the membrane using a cotton-tipped swab and five representative pictures for each insert were taken of the invading cells from the reverse side. For each experiment, invading cells were lysed and absorbance at 560 nm was measured.

mTORC2 = mTORC2 (Homo sapiens, UniProt P42345); experiment: Immunoblot of mTORC2 substrate Akt-Ser473 in CEM cells; type: cell-based; design: endogenous in cells; host or cells: CEM cells; conditions: 2 hours, FIG. 16
Procedure: CEM cells (1·10^6 cells) were incubated with indicated concentrations of compound 25 for 2 hours and lysates of the cells were subjected to Western blot analysis. Inhibitory activity of compound 25 on mTORC1 substrates p70S6K-Thr389 and 4EBP1-Thr37 and 46 and on mTORC2 substrate Akt-Ser473 and on PDK1 substrate Akt-Thr308 was evaluated by immunoblotting. Total 4EBP1, p70S6K, Akt and […] serve as loading controls. The compounds of the invention and more particularly compound 25 may be competitive inhibitors of mTOR because they inhibit mTORC1 (4EBP1 and p70S6K) and mTORC2 substrates (AKT at S473) as shown in FIG. 16.
Immunoblots Excepted for immunoprecipitation experiments in which cells were lyzed with RIPA buffer, cells were lyzed for 30 min at 4° C. in Lysis buffer (25 mM HEPES pH 7.4, 1% v/v Triton X-100, 150 mM NaCl, 2 mM EGTA supplemented with a mix of protease inhibitors). Protein concentration was determined by the bicinchoninic acid method (Pierce, Rockford, Ill., USA) according to the manufacturer's protocol. Proteins were resolved by 8, 10 or 12% SDS-PAGE and transferred to a nitrocellulose membrane (GE Healthcare, Buckinghamshire, UK). The membrane was blocked 15 min with TBST (50 mM Tris, 160 mM NaCl, 0.05% v/v Tween 20, pH 7.4) containing 5% w/v dried skimmed milk (TBS™). Primary antibody was incubated overnight at 4° C. in TBS™. […]

[2] = tested on: MCF-7 (ER-positive) breast tumor cell line; experiment: Cell death by MTT assay, MCF-7; type: cell-based, human; conditions: 24 hours, mean of four experiments
Procedure: (§1) The ER-positive breast tumor cell lines MCF-7 and T47-D and the HER2 positive breast tumor cell lines MDA-MB-453 and BT474 (also ER-positive) were incubated with the indicated concentration of each mentioned compound of formula (I) for 24 hours and then cell death was assessed using MTT assay.
(§2) For each cell line, the percentage of cell death (mean of four experiments for cell lines MCF-7 and T47-D, and two experiments for cell lines MDA-MB-453 and BT474) is given in view of the increasing concentration of each tested compound of the invention.
(§3) Cell viability was assessed using the 3-[4,5-dimethylthiazol-2-yl]-2,5-diphenyltetrazolium bromide (MTT) viability assay (1). In brief, cells (4×10^4 per well) were cultured for 20 h in flat-bottomed 96 well plates with various concentrations of the apoptosis inducer. Then 0.015 ml of MTT (5 mg/ml in PBS) was added to each well and incubated for 4 h at 37° C. Formazan salt precipitats were dissolved by adding 0.115 ml of isopropyl alcohol containing 1% formic acid (v/v), and the absorbance was measured at 570 nm.

AKT phosphorylation = experiment: In cellulo IC50 of AKT phosphorylation in CEM cells (Western blot densitometry); type: cell-based; conditions: Homo sapiens, CCRF-CEM, 2 hours incubation, AKT phosphorylation vs whole AKT, read-out: In vivo IC50
Procedure: CEM cells were incubated for 2 hours with the indicated concentrations of each mentioned compound of formula (I). Cells were then lysed and 100 μg of protein was loaded per line in an SDS-PAGE. Bands from AKT phosphorylation and whole AKT observed by Western blot were scanned and quantified by densitometric analysis. Based on these values, an in cellulo IC50 (half maximal inhibitory concentration) was measured for each compound of formula (I).
Immunoblots Excepted for immunoprecipitation experiments in which cells were lyzed with RIPA buffer, cells were lyzed for 30 min at 4° C. in Lysis buffer (25 mM HEPES pH 7.4, 1% v/v Triton X-100, 150 mM NaCl, 2 mM EGTA supplemented with a mix of protease inhibitors). Protein concentration was determined by the bicinchoninic acid method (Pierce, Rockford, Ill., USA) according to the manufacturer's protocol. Proteins were resolved by 8, 10 or 12% SDS-PAGE and transferred to a nitrocellulose membrane (GE Healthcare, Buckinghamshire, UK). The membrane was blocked 15 min with TBST (50 mM Tris, 160 mM NaCl, 0.05% v/v Tween 20, pH 7.4) containing 5% w/v dried skimmed milk (TBS™). Primary antibody was incubated overnight at 4° C. in TBS™. The membrane was intensively washed (TBST) and then the peroxydase-labeled anti-mouse IgG1 or IgG2a (CliniSciences, Nanterre, France) was added for 45 min. Proteins were visualized with the enhanced chemiluminescence substrate kit (ECL RevelBIOt®, Ozyme, Saint Quentin en Yvelines, France).

[3] = tested on: BT474 (ER-positive/HER2-positive) breast tumor cell line; experiment: Cell death by MTT assay, BT474; type: cell-based, human; conditions: 24 hours, mean of two experiments
Procedure: as §1, §2, §3

[4] = target: T1, mTOR protein regarding 243 human kinases (Homo sapiens, UniProt P42345); experiment: Kinome by KinaseProfiler; type: biochemical; conditions: 1 μM, FIG. 11
T1 construct: purchased

[5] = tested on: TSC2^−/− AML (AngioMyoLipoma) cells; experiment: Cell viability by MTT assay on TSC2^−/− and TSC2^+/+ AML cells; type: cell-based, human; conditions: 16 hours, 1% fetal calf serum
Procedure: AML (AngioMyoLipoma) cells from a patient (generous gift from Dr M. Pende, Paris) were enriched for TSC2^−/− cells, as a model of tuberous sclerosis. These cells have been reconstituted with wild type TSC2 (TSC2^+/+). Cell proliferation was assessed in cells from angiomyolipomas and their counterparts reconstituted with wild type TSC2.
Cell viability was assessed by MTT assay. Cells were incubated for 16 hours in a 1% fetal calf serum-containing medium supplemented with the indicated concentrations of the two mTOR inhibitors, compound 25 or rapamycin (see FIGS. 14B and 14C). Data represent mean and standard deviation of three independent experiments.
as §3

[6] = tested on: T47-D (ER-positive) breast tumor cell line; experiment: Cell death by MTT assay, T47-D; type: cell-based, human; conditions: 24 hours, mean of four experiments
Procedure: as §1, §2, §3

## O=[N+]([O-])C1=Cc2cc(Br)cc(Br)c2OC1c1ccc(Br)cc1 (stereo not drawn) [Compound 25, 6,8-dibromo-2-(4-bromo-phenyl)-3-nitro-2H-chromene]
[1]
  toxicity in mice: did not exhibit toxicity
[1]; FIG. 13A
  body weight of the tested mice: maintained
[1]; at 7 days, FIG. 13B
  survival of the tested mice: all mice survived
MDA-MB-231 cells
  migration of tumor cells stimulated with CD95L: abrogate
mTORC2
  inhibitory activity on mTORC2 substrate (AKT at S473): inhibit
[2]; MCF-7, 6.25 μM
  percentage of cell death: 47.86%
[2]; MCF-7, 12.5 μM
  percentage of cell death: 63.54%
[2]; MCF-7, 25 μM
  percentage of cell death: 76.72%
[2]; MCF-7, 50 μM
  percentage of cell death: 94.09%
AKT phosphorylation
  IC50: 3000 nM
[3]; BT474, 6.25 μM
  percentage of cell death: 75.54%
[3]; BT474, 12.5 μM
  percentage of cell death: 95.61%
[3]; BT474, 25 μM
  percentage of cell death: 90.49%
[3]; BT474, 50 μM
  percentage of cell death: 96.81%
[4]
  selectivity in kinome: selectivity of compound 25 for the mTOR protein
[5]; FIG. 14B
  sensitivity of TSC2^−/− cells versus wild type TSC2^+/+ cells (cell death, MTT): more sensitive
[5]; FIGS. 14B and 14C
  efficiency to kill TSC2^−/− cells compared with rapamycin: more efficient
[6]; 6.25 μM
  percentage of cell death: 85.31%
[6]; 12.5 μM
  percentage of cell death: 91.27%
[6]; 25 μM
  percentage of cell death: 90.23%
[6]; 50 μM
  percentage of cell death: 91.25%
